In the METLIN SMRT retention time set (Domingo-Almenara et al. 2019):

assay: gradient 5% acetonitrile 3 min, to 50% in 2 min, to 85% in 15 min, held 3 min, 100 µL/min; details: column: Zorbax Extend-C18 2.1 x 50 mm; eluents: water / acetonitrile, 0.1% formic acid
Method in brief: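 Standards, all pure, were combined into mixtures of ~100 molecules and run at 100 μL/min on a Zorbax Extend-C18 column (2.1 × 50 mm, 1.8 μm) with water and acetonitrile, each containing 0.1% formic acid. A coupled quadrupole time-of-flight mass spectrometer operated in positive and negative ionization mode. Retention time values come from computationally picked adduct peaks, each inspected manually.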

SMILES	RP-LC retention time [s]
CC(C)NC(=O)Cn1cc(-c2ccccc2)c2ncnc(N3CCOCC3)c21	659
O=c1[nH]cc(S(=O)(=O)N2CCc3ccccc3C2)c(=O)[nH]1	663
CCn1c(=O)c2ccn(CC(=O)NCc3cc(OC)ccc3OC)c2n(CC)c1=O	811
CO[C@H]1C(=O)N(C2CCN(S(=O)(=O)c3ccc4c(c3)CCC4)CC2)[C@H]1c1ccncc1	704
CC(C)Oc1ccc(CNS(=O)(=O)c2cc(-c3nc(C(C)C)cs3)cs2)cc1	1210
Cn1c(=O)c(=O)n(C)c2cc(N3CCOCC3)c(NC(=O)C3CC3)cc21	623
Cc1cnc(C(=O)NCC23CCC=C2N(C)C(=O)CC3)cn1 (stereo unspecified)	666
COc1ccc(C)cc1NC(=O)CN1C(=O)C2CCCCN2c2ccc(S(=O)(=O)N(C)C)cc21 (stereo unspecified)	1000
Cc1cc(C)n(-c2nc(CC(=O)NCc3ccc(F)cc3)cs2)n1	854
CC(C)CC(=O)Nc1ccc(-n2cnc(C(=O)N3CCCC(C)C3)c2)nc1 (stereo unspecified)	756
COc1ccccc1C(=O)N1CCN(S(=O)(=O)c2cc3c4c(c2)CCC(=O)N4CCC3)CC1	771
CCOc1ccc(-c2cc3c(=O)n(Cc4nc(-c5cccc(F)c5)no4)ccn3n2)cc1	1140
CC1=C(c2ccc(C)cc2)S(=O)(=O)N=C1N1CCCN(C(=O)c2cccs2)CC1	836
Cc1cc(C)cc(C(=O)N2CCCC2COc2ccc(C(=O)NC(C)C)cc2)c1 (stereo unspecified)	922
CN(c1ccccc1CNc1nc(Nc2ccc3c(c2)CC(=O)N3)ncc1C(F)(F)F)S(C)(=O)=O	713
NC(=O)C1CCN(C(=O)CSc2nc3c(c(-c4ccccc4)n2)CCCC3)CC1	702
COc1ccc2[nH]cc(C3=CCNCC3)c2c1	648
CCc1nc2cc(N3CCC(C(=O)N(CC)CC)CC3)cnc2nc1CC	712
Cc1ccc(NC(=O)N2CCCC(C)(C(=O)NCc3ccccc3)C2)c(C)c1 (stereo unspecified)	924
O=C(Nc1cccnc1)C1(CCO)CCN(c2ncccn2)C1 (stereo unspecified)	529
COc1cccc(-c2csc(Nc3ccc(Br)cn3)n2)c1	1170

SMILES	RP-LC retention time [s]
CCCN(Cc1cccs1)C(=O)C1CCc2nc(N3CCC(C)CC3)ncc2C1 (stereo unspecified)	979
CC(=O)c1cccc(NC(=O)C2CC(=O)N(c3ccc4c(c3)CCN4C(C)=O)C2)c1 (stereo unspecified)	668
COC(=O)c1ncn2c1C(=O)N(CCCc1ccccc1)C(C)(C(=O)NCc1ccccc1)C2 (stereo unspecified)	761
O=C(CCCn1c(=O)c2cccn2c2ccc(Br)cc21)NCc1ccc2c(c1)OCO2	915
O=C(CN1CC(c2nc(-c3ncccn3)no2)C1)Nc1ccc(F)c(Cl)c1	576
O=C(Nc1cc(F)ccc1F)Nc1c(-c2ccc(F)cc2)nc2ccccn12	706
COc1ccc(-c2nc(NC3CC3)c3ccccc3n2)cc1	706
Cc1nc2cc(-c3noc(CCc4ccccc4)n3)ccc2o1	1050
CCNC(=O)C1CCCN(c2nc3ncn(CC(=O)NCc4ccc(Cl)cc4)c(=O)c3s2)C1 (stereo unspecified)	696
CCOC(=O)N1CCN(C(=O)Cc2c(C)nn(-c3nc(-c4ccccc4)cs3)c2C)CC1	998
COC(=O)C(C)n1nc2nc(Nc3cc(C)cc(C)c3)cc(C)n2c1=O (stereo unspecified)	1160
CC1=C(C(=O)N2CCOCC2)C(c2c(F)cccc2Cl)C2=C(CC(C)(C)CC2=O)N1 (stereo unspecified)	690
O=C(Cn1c(=O)oc2ccccc21)N1CCCC(COCc2ccccc2)C1 (stereo unspecified)	897
Clc1ccc2nc3ccccc3cc2c1	842
Cc1sc(-c2cc(C(F)(F)F)on2)cc1S(=O)(=O)Nc1ccc(F)cc1	1120
Cc1ccc(C)c(-c2nnc(NC(=O)c3ccccc3[N+](=O)[O-])o2)c1	798
COc1ccc(C)cc1NC(=O)C1CCN(c2nc(C3CCC3)nc3csc(C)c23)CC1	847
O=C(NCc1ccc(F)cc1)N1CCN(c2cc(-c3ccncc3)[nH]n2)CC1	611
Cc1c(-c2nnc(C(=O)NCCN3CCCCCC3)o2)oc2ccccc12	667
COc1ccc(-c2cn3c(CC(=O)Nc4ccc(C)cn4)csc3n2)cc1OC	653

Second part, the molecule after the results:

RP-LC retention time [s]	SMILES
689	CCOC(=O)c1cnc2nc(C)ccc2c1Nc1cccc(F)c1
674	COc1ccc(N2C(=O)CCC(C(=O)NC(C)C)C2c2ccc(OC)c(OC)c2)cc1 (stereo unspecified)
644	CCCN1CN=C(Nc2nc(C)c3cccc(OC)c3n2)NC1
849	Cc1cccc(NC(=O)Cn2nc(N(C)C)c3ccccc3c2=O)c1C
730	COc1cc(C(=O)N2CCC3(CC2)NC(=O)c2cc(C)ccc2N3C)cc(OC)c1OC
809	COc1cc(OC)cc(C(=O)N(C)CCc2noc(C(=O)NCc3ccccc3)n2)c1
1060	O=C(NCCCc1ccccc1)C1CCN(S(=O)(=O)c2ccc(-c3noc(C4CC4)n3)cc2)CC1
637	COC(=O)c1ccc(C(=O)NCc2nc(C)no2)cc1
662	CCc1ccc(NC(=O)N2CCC(CN3CCCC(C)C3)CC2)cc1 (stereo unspecified)
822	CCOc1ncccc1CNC(=O)c1sccc1C
843	CCNC(=O)c1nc(C(=O)NC(C)c2ccc(C)cc2)cs1 (stereo unspecified)
623	COc1ccc2cc(C(=O)N3CCC(CC(=O)N4CCN(c5ccccn5)CC4)CC3)[nH]c2c1
741	CCn1ncc(Cl)c1C(=O)N1CCCC1c1cc(C)no1 (stereo unspecified)
791	CC(C)CCNC(=O)C1(C)Cn2nc(C(=O)NCCc3ccccc3)cc2C(=O)N1C (stereo unspecified)
670	Cn1cnc(S(=O)(=O)N2CCC(C(=O)NCc3ccc(F)cc3)CC2)c1
826	CN(Cc1ccco1)C(=O)CC1CCN(C(=O)c2cc3ccccc3[nH]2)CC1
857	CC(=O)N1CCc2c([nH]c3ccccc23)C12C(=O)N(C)c1ccc(Br)cc12 (stereo unspecified)
817	O=C(C1=CN(c2ccc(F)c(Cl)c2)c2ccccc2S1(=O)=O)N1CCCC1
900	CSc1cccc(NC(=O)Cc2csc(SCC(=O)Nc3ccc(C)cc3)n2)c1
887	O=C(CSc1ccc(F)cc1)NCC(O)(c1ccccc1)C(F)(F)F (stereo unspecified)
846	COc1ccc(NS(=O)(=O)c2cc(-c3nnc(C(=O)N4CCCC4)o3)sc2C)c(OC)c1
606	Cc1cc(=O)n(CC(=O)NCc2ccccc2)c(N2CCCC2)n1
841	CC1CCCN(c2nc(=O)n(CC(=O)Nc3ccc(F)cc3)c3ccccc23)C1 (stereo unspecified)
829	Cc1ccc(NC(=O)N2CCC(c3nc(C(=O)N4CCCC4)c(C)o3)CC2)cc1C
846	O=C(COc1ccc([N+](=O)[O-])cc1Cl)N1CCOCC1
